Results on 1 molecule are retold here after EP0977036A1, “METHOD FOR ASSAYING AGALACTO-IgG AND ASSAY KITS, PO[…] LECTINS, AND DNAS ENCODING THE SAME” (SEIKAGAKU CORPORATION, priority 1996, dated 1998).

In this test the test system is PVL. Briefly: Influence of various monosaccharides on the agalacto-IgG assay system (PVL immobilized on plate, peroxidase-labeled anti-human IgG antibody). The format is binding, Psathyrella velutina. The following applies: 50 mM monosaccharide added to agalacto-IgG standard solution (2.5 µg/ml); value without monosaccharide defined as 100%. As for the experimental part: PVL purified in Example 1 or commercially available PVL was diluted to 20 µg/ml in 0.1 M carbonate buffer containing 10% glycerol (pH 8.5 to 9), and 50 µl of this solution (1 µg/well) was added to each well of a Nunc immunoplate (trade name; Maxisorp, Nunc), and left at 4°C for 16 hours to uniformly coat each well.
This plate was washed twice with PBS(-), and PBS(-) solution containing 3% bovine serum albumin (BSA, sold by Seikagaku Corporation) was added as a blocking agent, and left stand at room temperature for two hours to coat the portions of the wells on which PVL was not immobilized.
Then, the plate was washed three times with a washing solution (PBS(-) containing 0.05% Tween 20), and 50 µl each of standard solutions at various concentrations (0.125 to 2 µg/ml) of the agalacto-IgG purified in Preparation Example 1 was added, and left stand at 37°C for 60 minutes for reaction. As the solvent of the agalacto-IgG standard solutions, PBS(-) containing 1% BSA and 0.05% Tween 20 (referred to as "reaction diluent" hereinafter) was used. […]
After the color development, 50 µl of 1 N HCl was added to the plate to terminate the reaction, and absorbance at a wavelength of 450 nm of the solution colored by the decomposition of TMB was measured (reference wavelength: 630 nm, A450/630) by Well Reader SK601 (sold by Seikagaku Corporation). […]

On to `CC(=O)N[C@H]1C(O)O[C@H](CO)[C@@H](O)[C@@H]1O` (stereo partly shown) [GlcNAc, N-acetylglucosamine], for which the inhibition entry is recorded as “about 50%”.
